{"source": "ChEMBL document CHEMBL1165963", "about": "“Bryonolic acid: a large-scale isolation and evaluation of heme oxygenase 1 expression in activated macrophages” (2010)", "key": {"RAW264.7 [1]": {"test_system": "RAW264.7", "experiment": "Effect on COX2 expression in mouse RAW264.7 cells after 24 hrs by Western blot", "format": "functional, cell-based"}, "RAW264.7 [2]": {"test_system": "RAW264.7", "experiment": "Immunomodulatory effect in LPS-stimulated mouse RAW264.7 cells assessed as increase in heme oxygenase 1 expression at 100 uM after 24 hrs by Western blot relative to untreated control", "format": "functional"}, "RAW264.7 [3]": {"test_system": "RAW264.7", "experiment": "Immunomodulatory effect in LPS-stimulated mouse RAW264.7 cells assessed as increase in heme oxygenase 1 expression at 100 uM after 24 hrs by Western blot relative to LPS", "format": "functional"}, "RAW264.7 [4]": {"test_system": "RAW264.7", "experiment": "Effect on iNOS expression in mouse RAW264.7 cells after 24 hrs by Western blot", "format": "functional, cell-based"}, "RAW264.7 [5]": {"test_system": "RAW264.7", "experiment": "Immunomodulatory effect in LPS-stimulated mouse RAW264.7 cells assessed as increase in heme oxygenase 1 expression after 24 hrs by Western blot", "format": "functional, cell-based"}, "RAW264.7 [6]": {"test_system": "RAW264.7", "experiment": "Immunomodulatory effect in LPS-stimulated mouse RAW264.7 cells assessed as increase in heme oxygenase 1 expression at 50 uM after 24 hrs by Western blot relative to untreated control", "format": "functional"}, "RAW264.7 [7]": {"test_system": "RAW264.7", "experiment": "Immunomodulatory effect in LPS-stimulated mouse RAW264.7 cells assessed as increase in heme oxygenase 1 expression at 50 uM after 24 hrs by Western blot relative to LPS", "format": "functional"}}, "note": "Activity calls are given as the source filed them. No cut-off for these calls is given here.", "data": [{"smiles": "CC1(C)[C@@H](O)CC[C@]2(C)C3=C(CC[C@@H]12)[C@@]1(C)CC[C@@]2(C)CC[C@@](C)(C(=O)O)C[C@H]2[C@]1(C)CC3", "note": "[BRYONOLIC ACID]", "values": [{"measurement": "Activity", "setting": "RAW264.7 [1]", "value": "inactive"}, {"measurement": "fold change (FC)", "setting": "RAW264.7 [2]", "value": 55}, {"measurement": "fold change (FC)", "setting": "RAW264.7 [3]", "value": 14}, {"measurement": "Activity", "setting": "RAW264.7 [4]", "value": "inactive"}, {"measurement": "Activity", "setting": "RAW264.7 [5]", "value": "Dose-dependent effect"}, {"measurement": "fold change (FC)", "setting": "RAW264.7 [6]", "value": 13}, {"measurement": "fold change (FC)", "setting": "RAW264.7 [7]", "value": 3.3}]}]}
